“And” between values parts separate entries of the source, which are not always exact repeats. Equal values may be shown once. Read-outs that look alike come from different tables or passages of the source.
Key:
Assay in all cases: Chymotrypsin coupled prolyl-isomerase assay
Type in all cases: biochemical
CypG = target: T1, CypG (Homo sapiens, UniProt Q13427)
T1 construct: PPIG (UniProtKB Entry Q13427: residues 1–179); His6 with thrombin site (pET28a LIC leader) (N); host or cells: E. coli BL21(DE3)
T1 sequence (Q13427 1-179): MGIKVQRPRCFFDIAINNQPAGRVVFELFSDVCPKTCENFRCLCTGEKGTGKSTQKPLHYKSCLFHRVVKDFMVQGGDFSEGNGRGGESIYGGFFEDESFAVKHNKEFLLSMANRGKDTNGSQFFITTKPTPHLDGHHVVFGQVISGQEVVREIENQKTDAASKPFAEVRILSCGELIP
Summary of the method: (§1)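 Steps: cyclophilin plus compound 5 min at 2–3 °C; α-chymotrypsin added, 5 min more; Suc-AAPF-AMC substrate in LiCl/trifluoroethanol injected and fluorescence followed 330 s. Finals: 5 nM enzyme, 25 µM chymotrypsin, 5 µM substrate, 0.25% DMSO.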

CypA = target: T2, CypA (Homo sapiens, UniProt P62937)
T2 construct: PPIA (UniProtKB Entry P62937: residues 1–165); made in house; host or cells: E. coli BL21(DE3)
Summary of the method: as §1

CypC = target: T3, CypC (Homo sapiens, UniProt P45877)
T3 construct: PPIC (UniProtKB Entry P45877: residues 24–212); host or cells: E. coli BL21(DE3)
Summary of the method: as §1

CypE = target: T4, CypE (Homo sapiens, UniProt Q9UNP9)
T4 construct: PPIE (UniProtKB Entry Q9UNP9: residues 131–301); host or cells: E. coli BL21(DE3)
Summary of the method: as §1

CypH = target: T5, CypH (Homo sapiens, UniProt O43447)
T5 construct: PPIH (UniProtKB Entry O43447: residues 1–177); His6 with TEV site (2BT vector leader) (N); made in house; host or cells: E. coli BL21(DE3)
Summary of the method: as §1

[1] = wild-type CypG, read-out: Wild-Type Cyclophilin Prolyl Isomerase Inhibition IC50 Values, CypG
[2] = wild-type CypA, read-out: Wild-Type Cyclophilin Prolyl Isomerase Inhibition IC50 Values, CypA
[3] = wild-type CypC, read-out: Wild-Type Cyclophilin Prolyl Isomerase Inhibition IC50 Values, CypC
[4] = prolyl-isomerase inhibition, 5 nM cyclophilin, read-out: IC50 CypE
[5] = wild-type CypE, read-out: Wild-Type Cyclophilin Prolyl Isomerase Inhibition IC50 Values, CypE
[6] = prolyl-isomerase inhibition, 5 nM cyclophilin, read-out: IC50 CypH
[7] = wild-type CypH, read-out: Wild-Type Cyclophilin Prolyl Isomerase Inhibition IC50 Values, CypH
[8] = prolyl-isomerase inhibition, 5 nM cyclophilin, read-out: IC50 CypA

T2 sequence (P62937 whole entry, the tested form may be a part): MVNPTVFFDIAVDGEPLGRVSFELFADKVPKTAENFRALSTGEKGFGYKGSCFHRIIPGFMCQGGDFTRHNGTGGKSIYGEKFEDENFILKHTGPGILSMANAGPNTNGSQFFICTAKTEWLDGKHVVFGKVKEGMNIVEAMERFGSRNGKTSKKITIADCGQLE
T5 sequence (O43447 whole entry, the tested form may be a part): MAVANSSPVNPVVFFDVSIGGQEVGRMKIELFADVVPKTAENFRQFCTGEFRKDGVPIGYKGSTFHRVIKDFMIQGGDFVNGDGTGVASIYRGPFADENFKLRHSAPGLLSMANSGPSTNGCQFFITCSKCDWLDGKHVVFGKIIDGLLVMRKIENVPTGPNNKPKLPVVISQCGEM
T4 sequence (Q9UNP9 131-301): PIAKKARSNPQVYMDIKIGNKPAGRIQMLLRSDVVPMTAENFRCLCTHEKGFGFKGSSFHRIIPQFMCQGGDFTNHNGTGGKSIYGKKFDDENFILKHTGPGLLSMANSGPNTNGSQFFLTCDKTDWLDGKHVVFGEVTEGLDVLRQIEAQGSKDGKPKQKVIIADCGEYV
T3 sequence (P45877 24-212): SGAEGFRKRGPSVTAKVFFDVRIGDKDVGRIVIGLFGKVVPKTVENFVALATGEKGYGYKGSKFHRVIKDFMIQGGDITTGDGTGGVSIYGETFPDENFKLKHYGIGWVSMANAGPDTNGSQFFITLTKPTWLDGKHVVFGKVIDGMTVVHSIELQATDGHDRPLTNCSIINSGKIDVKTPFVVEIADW

NC(=O)C1CCNC(=O)C=CC(=O)N2CCCC(Cc3ccccc3)(C2)C(=O)NC(Cc2ccc(-c3ccc(C=O)c(B(O)O)c3)cc2)C(=O)NCc2ccccc2CC(=O)N1 (stereo not shown) [Compound C3A]
CypG prolyl-isomerase raw dose-response reading (Fig. 6c) (CypG; Dose 0.00457247 µM): 0.04675 and 0.05256 and 0.06278
CypG prolyl-isomerase raw dose-response reading (Fig. 6c) (CypG; Dose 0.0137174 µM): 0.05042 and 0.05542 and 0.04906
CypG prolyl-isomerase raw dose-response reading (Fig. 6c) (CypG; Dose 0.0411523 µM): 0.05063 and 0.04839 and 0.04139
CypG prolyl-isomerase raw dose-response reading (Fig. 6c) (CypG; Dose 0.123457 µM): 0.04982 and 0.05395 and 0.05565
CypG prolyl-isomerase raw dose-response reading (Fig. 6c) (CypG; Dose 0.37037 µM): 0.04159 and 0.05179 and 0.03978
CypG prolyl-isomerase raw dose-response reading (Fig. 6c) (CypG; Dose 1.11111 µM): 0.05731 and 0.0555 and 0.05308
CypG prolyl-isomerase raw dose-response reading (Fig. 6c) (CypG; Dose 3.33333 µM): 0.04975 and 0.046 and 0.05109
CypG prolyl-isomerase raw dose-response reading (Fig. 6c) (CypG; Dose 10 µM): 0.05239 and 0.04081 and 0.048
IC50 (CypG; Independent replicate 1, read-out: IC50 CypG): > 10 µM
IC50 (CypG; Independent replicate 2, read-out: IC50 CypG): ~40 µM
IC50 (CypG; Independent replicate 3, read-out: IC50 CypG): ~26 µM
IC50 (CypG; Independent replicate 4, read-out: IC50 CypG): ~50 µM
IC50 (CypG; [1]): 40 µM
CypA prolyl-isomerase raw dose-response reading (Fig. 6c) (CypA; Dose 0.00114312 µM): 0.07306 and 0.07874 and 0.07172
CypA prolyl-isomerase raw dose-response reading (Fig. 6c) (CypA; Dose 0.00342936 µM): 0.06275 and 0.05859
CypA prolyl-isomerase raw dose-response reading (Fig. 6c) (CypA; Dose 0.0102881 µM): 0.07757 and 0.05083 and 0.08593
CypA prolyl-isomerase raw dose-response reading (Fig. 6c) (CypA; Dose 0.0308642 µM): 0.09366 and 0.07648 and 0.07092
CypA prolyl-isomerase raw dose-response reading (Fig. 6c) (CypA; Dose 0.0925926 µM): 0.1069 and 0.06289 and 0.07689
CypA prolyl-isomerase raw dose-response reading (Fig. 6c) (CypA; Dose 0.205761 µM): 0.06396 and 0.05394 and 0.06349 and 0.0486 and 0.04768 and 0.0647 and 0.04401 and 0.05288
CypA prolyl-isomerase raw dose-response reading (Fig. 6c) (CypA; Dose 0.277778 µM): 0.09488 and 0.06 and 0.09425
CypA prolyl-isomerase raw dose-response reading (Fig. 6c) (CypA; Dose 0.833333 µM): 0.06403 and 0.06231 and 0.07443
CypA prolyl-isomerase raw dose-response reading (Fig. 6c) (CypA; Dose 2.5 µM): 0.06101 and 0.05306 and 0.05126
IC50 (CypA; Independent replicate 1, read-out: IC50 CypA): ~3 µM
IC50 (CypA; Independent replicate 2, read-out: IC50 CypA): 2.2 ± 0.7 µM
IC50 (CypA; Independent replicate 3, read-out: IC50 CypA): 1.6 ± 0.7 µM
IC50 (CypA; Independent replicate 4, read-out: IC50 CypA): 4 ± 2 µM
IC50 (CypA; [2]): 3 µM
CypC prolyl-isomerase raw dose-response reading (Fig. 6c) (CypC; Dose 0.00457247 µM): 0.03895 and 0.0375
CypC prolyl-isomerase raw dose-response reading (Fig. 6c) (CypC; Dose 0.0137174 µM): 0.04174 and 0.04247 and 0.04306
CypC prolyl-isomerase raw dose-response reading (Fig. 6c) (CypC; Dose 0.0411523 µM): 0.05121 and 0.04011 and 0.04386
CypC prolyl-isomerase raw dose-response reading (Fig. 6c) (CypC; Dose 0.123457 µM): 0.05033 and 0.03342 and 0.04085
CypC prolyl-isomerase raw dose-response reading (Fig. 6c) (CypC; Dose 0.37037 µM): 0.03932 and 0.03966 and 0.05738
CypC prolyl-isomerase raw dose-response reading (Fig. 6c) (CypC; Dose 1.11111 µM): 0.0536 and 0.03667 and 0.04316
CypC prolyl-isomerase raw dose-response reading (Fig. 6c) (CypC; Dose 3.33333 µM): 0.03577 and 0.0377 and 0.04529
CypC prolyl-isomerase raw dose-response reading (Fig. 6c) (CypC; Dose 10 µM): 0.03905 and 0.04054 and 0.0318
IC50 (CypC; Independent replicate 1, read-out: IC50 CypC): > 10 µM
IC50 (CypC; Independent replicate 2, read-out: IC50 CypC): 15 ± 4 µM
IC50 (CypC; Independent replicate 3, read-out: IC50 CypC): 20 ± 10 µM
IC50 (CypC; Independent replicate 4, read-out: IC50 CypC): 19 ± 9 µM
IC50 (CypC; [3]): 17 µM
higher CypE inhibition potency of C3A over C5A (CypE): 75 fold
selectivity for CypE over CypA (CypE): > 100 fold
IC50 (CypE; Independent replicate 1, read-out: IC50 CypE): 0.013 ± 0.003 µM
IC50 (CypE; Independent replicate 2, read-out: IC50 CypE): 0.018 ± 0.006 µM
IC50 (CypE; Independent replicate 3, read-out: IC50 CypE): 0.009 ± 0.002 µM
IC50 (CypE; Independent replicate 4, read-out: IC50 CypE): 0.012 ± 0.004 µM
selectivity for CypE over the other cyclophilins screened (CypE; prolyl-isomerase IC50): 30- to 4,000 fold
IC50 (CypE; [4]): 0.013 ± 0.004 µM
IC50 (CypE; prolyl-isomerase inhibition, read-out: IC50 CypE): 0.013 µM
IC50 (CypE; [5]): 0.013 µM
CypH prolyl-isomerase raw dose-response reading (Fig. 6c) (CypH; Dose 0.00457247 µM): 0.05086 and 0.04496
CypH prolyl-isomerase raw dose-response reading (Fig. 6c) (CypH; Dose 0.0137174 µM): 0.05594 and 0.04525 and 0.04484
CypH prolyl-isomerase raw dose-response reading (Fig. 6c) (CypH; Dose 0.0411523 µM): 0.05731 and 0.04453 and 0.05359
CypH prolyl-isomerase raw dose-response reading (Fig. 6c) (CypH; Dose 0.123457 µM): 0.05145 and 0.04681 and 0.07329
CypH prolyl-isomerase raw dose-response reading (Fig. 6c) (CypH; Dose 0.37037 µM): 0.05882 and 0.04794 and 0.07376
CypH prolyl-isomerase raw dose-response reading (Fig. 6c) (CypH; Dose 1.11111 µM): 0.06718 and 0.05255 and 0.05895
CypH prolyl-isomerase raw dose-response reading (Fig. 6c) (CypH; Dose 3.33333 µM): 0.06287 and 0.05436 and 0.04825
CypH prolyl-isomerase raw dose-response reading (Fig. 6c) (CypH; Dose 10 µM): 0.04443 and 0.06084 and 0.04295
IC50 (CypH; Independent replicate 1, read-out: IC50 CypH): > 10 µM
IC50 (CypH; Independent replicate 2, read-out: IC50 CypH): > 50 µM
IC50 (CypH; Independent replicate 3, read-out: IC50 CypH): ~40 µM
IC50 (CypH; Independent replicate 4, read-out: IC50 CypH): > 50 µM
IC50 (CypH; [6]): > 50 µM
IC50 (CypH; [7]): > 50 µM

NC(=O)[C@@H]1CCNC(=O)/C=C/C(=O)N2CCC[C@](Cc3ccccc3)(C2)C(=O)N[C@@H](Cc2ccc(-c3cccc(B(O)O)c3)cc2)C(=O)NCc2ccccc2CC(=O)N1 [Compound C6A]
IC50 (CypG; [1]): 1.3 µM
IC50 (CypA; [8]): ~6 µM
IC50 (CypA; [2]): 6 µM
IC50 (CypC; prolyl-isomerase inhibition, 5 nM cyclophilin, read-out: IC50 CypC): ~5 µM
IC50 (CypC; [3]): 5 µM
IC50 (CypE; [4]): ~4 µM and 4 µM
IC50 (CypH; [6]): ~4 µM
IC50 (CypH; [7]): 4 µM

NCCOCCNC(=O)C1CCNC(=O)C=CC(=O)N2CCCC(C2)C(=O)NC(Cc2ccco2)C(=O)NCc2ccccc2CC(=O)N1 (stereo not shown) [JOMBt]
IC50 (CypG; [1]): 16 µM
IC50 (CypA; [8]): ~60 µM
IC50 (CypA; [2]): 60 µM
IC50 (CypC; [3]): 23 µM
IC50 (CypE; [5]): 23 µM
IC50 (CypH; [6]): ~100 µM
IC50 (CypH; [7]): 100 µM
